Laboratory results taken from ChEMBL document CHEMBL1201862, “PubChem BioAssay data set” (2004).
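Values below derive from 48-hour exposures of cells grown in 96-well plates, with endpoints linearly interpolated between the two concentrations bracketing the appropriate inhibition level. At the GI50, growth is halved.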 The source made the active and inactive calls. No stated cut-off is given here; in the data, active = GI50 up to about 1.1 µM and inactive = higher.

Key:
Experiment in all cases: NCI tumour cell line growth inhibition, 48 h
[1] = test system: A549
[2] = test system: EKVX
[3] = test system: HCC 2998
[4] = test system: HOP-62
[5] = test system: HT-29
[6] = test system: K562
[7] = test system: KM12
[8] = test system: M14
[9] = test system: OVCAR-4
[10] = test system: OVCAR-5
[11] = test system: OVCAR-8
[12] = test system: SF-295
[13] = test system: SK-MEL-2
[14] = test system: SK-MEL-5
[15] = test system: SW-620
[16] = test system: UACC-257
[17] = test system: COLO 205
[18] = test system: SR

SMILES | GI50 [1] | GI50 [2] | GI50 [3] | GI50 [4] | GI50 [5] | GI50 [6] | GI50 [7] | GI50 [8] | GI50 [9] | GI50 [10] | GI50 [11] | GI50 [12] | GI50 [13] | GI50 [14] | GI50 [15] | GI50 [16] | GI50 [17] | GI50 [18]
COc1cc2c(c(O)c1C)C(=O)CC(c1ccccc1)O2 (centres undefined) | 56.6 µM (inactive) | 89.3 µM (inactive) | 79.8 µM (inactive) | > 100 µM (inactive) | > 10 µM (inactive) | 50.2 µM (inactive) | 62.8 µM (inactive) | > 10 µM (inactive) | > 10 µM (inactive) | 39.1 µM (inactive) | > 100 µM (inactive) | > 10 µM (inactive) | 24.9 µM (inactive) | 18.2 µM (inactive) | > 10 µM (inactive) | 38.5 µM (inactive) |  | 
O=C(O)C1=C(Cl)c2ccccc2S1(=O)=O | > 100 µM (inactive) | > 100 µM (inactive) | > 100 µM (inactive) | > 100 µM (inactive) |  | > 100 µM (inactive) | > 100 µM (inactive) | > 100 µM (inactive) | > 100 µM (inactive) | > 100 µM (inactive) | > 100 µM (inactive) | > 100 µM (inactive) | > 100 µM (inactive) | > 100 µM (inactive) | > 100 µM (inactive) | > 100 µM (inactive) | > 100 µM (inactive) | 
O=C1C(C2=[N+]([O-])c3ccccc3C2=O)=[N+]([O-])c2ccccc21 | 26.4 µM (inactive) | 16.6 µM (inactive) |  |  | 32.8 µM (inactive) | 19.7 µM (inactive) | > 10 µM (inactive) | 16.6 µM (inactive) | 14.5 µM (inactive) | 94.4 µM (inactive) | 24.7 µM (inactive) | 40.7 µM (inactive) |  | 17.8 µM (inactive) | 21.8 µM (inactive) |  | 17.7 µM (inactive) | 22.5 µM (inactive)
COc1cc([C@@H]2c3cc4c(cc3[C@@H](NC(=O)c3cccc(C#N)c3)C3COC(=O)[C@@H]32)OCO4)cc(OC)c1O (some centres undefined) | 0.0178 µM (active) | 1.36 µM (inactive) | 1.84 µM (inactive) | 0.172 µM (active) | 1.85 µM (inactive) | 1.73 µM (inactive) | 1.39 µM (inactive) | 1.11 µM (active) | 16.7 µM (inactive) | 1.1 µM (active) | 1.19 µM (inactive) | 0.372 µM (active) | 3.55 µM (inactive) | 0.815 µM (active) | 0.583 µM (active) | 6.17 µM (inactive) | 2.96 µM (inactive) | 
[O-][Cl+3]([O-])([O-])[O-].c1ccc(-c2[o+]c(-c3ccccc3)c(-c3ccccc3)c(-c3ccccc3)c2-c2ccccc2)cc1 | > 100 µM (inactive) | > 100 µM (inactive) | > 100 µM (inactive) | > 100 µM (inactive) | > 100 µM (inactive) |  |  | > 100 µM (inactive) | > 100 µM (inactive) | > 100 µM (inactive) | > 100 µM (inactive) | > 100 µM (inactive) | > 100 µM (inactive) | > 100 µM (inactive) | > 100 µM (inactive) | > 100 µM (inactive) | > 100 µM (inactive) | 
CN(C(=O)c1ccc([N+](=O)[O-])cc1)c1ccccc1 | > 100 µM (inactive) | > 100 µM (inactive) | > 100 µM (inactive) | > 100 µM (inactive) | > 100 µM (inactive) | > 10 µM (inactive) | > 100 µM (inactive) | > 100 µM (inactive) | > 100 µM (inactive) | > 100 µM (inactive) | > 100 µM (inactive) | > 100 µM (inactive) |  |  | > 100 µM (inactive) | > 100 µM (inactive) | > 100 µM (inactive) | 
COc1ccc(/C(=N\NC(=O)C(N)=O)C(c2ccc(OC)cc2)C2(O)C(=O)Nc3c(Cl)cccc32)cc1 (centres undefined) | > 100 µM (inactive) | > 100 µM (inactive) | > 100 µM (inactive) | > 100 µM (inactive) | > 100 µM (inactive) |  | > 100 µM (inactive) | > 100 µM (inactive) | > 100 µM (inactive) | > 100 µM (inactive) | > 100 µM (inactive) | > 100 µM (inactive) | > 100 µM (inactive) | > 100 µM (inactive) | > 100 µM (inactive) | > 100 µM (inactive) | > 100 µM (inactive) | 
